Data published in PubChem BioAssay AID1963975 (Molecular Pharmacology Branch, DTP, NCI, 2024).
“And” between values parts separate entries of the source, which are not always exact repeats. Identical values can stand only once.

Test system: 624824-186-R-J2-PDC multicell spheroids, viability
Experiment: Anticancer human tumor 624824-186-R-J2-PDC patient-derived colon adenocarcinoma cell line growth inhibition [PI3K]
Conditions: for viability, T/C: stronger effect = lower value
From the text: Combinatorial screen of targeted agents with the PI3K inhibitors inavolisib, alpelisib, duvelisib, and copanlisib in multi-cell type tumor spheroids
A high-throughput screen of multi-cell type tumor spheroids was designed to identify active combinations of targeted small molecules and PI3K pathway inhibitors. Complex spheroids include a stromal component modeled by human endothelial cells (HUVEC) and fibroblasts modeled by human mesenchymal stem cells (MSCs). The concentration ranges selected for each drug and investigational agent were based upon clinically achievable concentrations if the clinical Cmax of the agent was known.
Compounds. The drugs and investigational agents: inavolisib (NSC800729), alpelisib (NSC765974), duvelisib (NSC772469), copanlisib (NSC816437), ipatasertib (NSC767898), afuresertib (NSC778305), talazoparib (NSC767125), sapanisertib (NSC764658), selumetinib (NSC741078), tovorafenib (DAY101, NSC766906), vemurafenib (NSC761431), ravoxertinib (NSC781343), sotorasib (NSC818433), MRTX1133 (NSC 836407), abemaciclib (NSC 768073), palbociclib (NSC758247), venetoclax (NSC 766270), SY5609 (NSC837396), enzalutamide (NSC755605), and darolutamide (NSC825331), were obtained from the National Cancer Institute (NCI) Developmental Therapeutics Program Chemical Repository. The FDA-approved anticancer drug set is available from the NCI Developmental Therapeutics Program. […] The stock solutions were prepared in dimethyl sulfoxide (DMSO, Sigma-Aldrich, St. Louis, MO, cat. D2650) at 800-fold the tested concentration and stored at -70 degrees C prior to their use. All drugs and investigational agents were tested over a range starting from a high concentration at or near the clinical Cmax and decreasing in half-log increments. If the clinical Cmax for an agent had not been determined, the highest concentration tested was 10 microM.
Cell Culture. All cells were maintained in an incubator at 37 degrees C and 5% CO2 with 95% humidity. The PDC lines were cultured according to standard operating procedures established by the NCI PDMR (https://pdmr.cancer.gov/sops/default.htm). All PDCs were thawed and cultured in Matrigel-coated flasks prepared with a working solution of 1X Ham's F-12 nutrient mix, without supplementation (Invitrogen, Waltham, MA, cat. 11765054), 100 U/mL penicillin-streptomycin (Invitrogen, cat. 15140122), and 2.5% Matrigel (Corning Inc., Corning, NY, cat. 354248) for the first three passages. The 354836-022-R-J1-PDC, 475296-252-R-J1-PDC, and 997726-040-R-J2-PDC lines were cultured in 6A media, which includes advanced DMEM/F-12 (Thermo Fisher Scientific, cat. 12634028), 10 mM HEPES (Thermo Fisher Scientific, cat. 15630080), 1X GlutaMAX supplement (Thermo Fisher Scientific, cat. 35050061), 0.1 mg/mL primocin (InvivoGen, San Diego, CA, cat. ant-pm-2), 10% defined fetal bovine serum, heat inactivated (HyClone Laboratories Inc., Logan, UT, cat. SH30070.03HI), 50% L-WRN conditioned media (ATCC, cat. CRL-3276), 1.25 mM N-Acetyl-L-cysteine (Sigma-Aldrich, cat. A9165), 10 mM nicotinamide (Sigma-Aldrich, cat. N0636), 1X B-27 supplement (Thermo Fisher Scientific, cat. 17504044), 1X N-2 supplement (Thermo Fisher Scientific, cat. 17502048), and 10 microM Y-27632 dihydrochloride (Tocris Bioscience, Bristol, United Kingdom, cat. 1254). The 624824-186-R-J2-PDC line was cultured in 6C/Colon 1B media, which includes all 6A media components plus 50 ng/mL human EGF recombinant protein (Thermo Fisher Scientific, cat. PHG0311). […]

[1] = compound alone, run of 06/12/2023
[2] = compound alone, run of 06/13/2023
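Note: spheroids exposed to agents for 7 days before viability read.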
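Throughout, for viability, T/C: 100% = DMSO vehicle treated spheroids.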

SMILES | viability, T/C (compound 0.0316 µM) | viability, T/C (compound 0.316 µM) | viability, T/C (compound 3.16 µM) | viability, T/C (compound 10 µM) | IC50 (curve of compound) | viability, T/C (compound 0.1 µM) | viability, T/C (compound 1 µM) | other results
C#Cc1c(F)ccc2cc(O)cc(-c3ncc4c(N5CC6CCC(C5)N6)nc(OCC56CCCN5CC(F)C6)nc4c3F)c12 (configuration not stated) | 94.5% [middle of 4 runs] | 97% [middle of 4 runs] | 84.7% [middle of 4 runs] | 86.3% [middle of 4 runs] | > 10 µM |  |  | 
C=CC(=O)N1CCN(c2nc(=O)n(-c3c(C)ccnc3C(C)C)c3nc(-c4c(O)cccc4F)c(F)cc23)C(C)C1 (configuration not stated) |  | 82.1% [middle of 4 runs] |  | 100% [middle of 4 runs] | > 10 µM | 82% [middle of 4 runs] | 99.7% [middle of 4 runs] | 
CC(=O)c1c(C)c2cnc(Nc3ccc(N4CCNCC4)cn3)nc2n(C2CCCC2)c1=O |  |  |  |  | > 0.1 µM | 87.5% [middle of 4 runs] |  | viability, T/C (compound 0.00316 µM): 93.5% [middle of 4 runs]
CC(C)NCC(C(=O)N1CCN(c2ncnc3c2C(C)CC3O)CC1)c1ccc(Cl)cc1 (configuration not stated) |  | 84.4% [middle of 4 runs] | 88.5% [middle of 4 runs] | 85.7% [middle of 4 runs] | > 10 µM | 92.5% [middle of 4 runs] |  | 
CC(C)n1nc(-c2ccc3oc(N)nc3c2)c2c(N)ncnc21 | 76.4% [middle of 4 runs] |  |  |  | > 0.1 µM | 79.5% [middle of 4 runs] |  | viability, T/C (compound 0.00316 µM): 79.1% [middle of 4 runs]; viability, T/C (compound 0.01 µM): 82.6% [middle of 4 runs]
CC(Cn1ccc(-c2ccc(C#N)c(Cl)c2)n1)NC(=O)c1cc(C(C)O)[nH]n1 (configuration not stated) | 91.5% [middle of 4 runs] | 89.7% [middle of 4 runs] | 101% [middle of 4 runs] | 106% [middle of 4 runs] | > 10 µM |  | 92.9% [middle of 4 runs] | 
CC(Nc1ccc2c(c1)OCCn1cc(N3C(=O)OCC3C(F)F)nc1-2)C(N)=O (configuration not stated) | 84.8% [middle of 8 runs] | 89.7% [middle of 8 runs] |  |  |  | 90.3% [middle of 8 runs] | 95.2% [middle of 8 runs] | viability, T/C (compound 0.01 µM): 95% [middle of 8 runs]; IC50 [1]: > 1 µM
CC(Nc1ncnc2nc[nH]c12)c1cc2cccc(Cl)c2c(=O)n1-c1ccccc1 (configuration not stated) |  | 91.6% [middle of 8 runs] |  |  |  |  | 91.4% [middle of 8 runs] | IC50 [2]: > 10 µM
CC1(C)CCC(CN2CCN(c3ccc(C(=O)NS(=O)(=O)c4ccc(NCC5CCOCC5)c([N+](=O)[O-])c4)c(Oc4cnc5[nH]ccc5c4)c3)CC2)=C(c2ccc(Cl)cc2)C1 |  | 80.4% [middle of 4 runs] | 67% [middle of 4 runs] | 72.2% [middle of 4 runs] | > 10 µM | 78.7% (2×) and 107% and 95.2% |  | 
CC1(C)CCC(Nc2ncc(C(F)(F)F)c(-c3c[nH]c4c(P(C)(C)=O)c(C#N)ccc34)n2)CN1 (configuration not stated) |  | 102% [middle of 4 runs] | 62.5% [middle of 4 runs] | 7.89% [middle of 4 runs] | 4.11 µM [middle of 4 runs] | 76.4% [middle of 4 runs] | 104% [middle of 4 runs] | 
CCCS(=O)(=O)Nc1ccc(F)c(C(=O)c2c[nH]c3ncc(-c4ccc(Cl)cc4)cc23)c1F | 90.4% [middle of 4 runs] | 88% [middle of 4 runs] | 122% [middle of 4 runs] | 52.3% [middle of 4 runs] | 9.53 µM and > 10 µM and 9.39 µM | 90.6% [middle of 4 runs] |  | 
CCN1CCN(Cc2ccc(Nc3ncc(F)c(-c4cc(F)c5nc(C)n(C(C)C)c5c4)n3)nc2)CC1 | 86.1% [middle of 4 runs] | 93.5% [middle of 4 runs] |  |  | > 1 µM | 93.7% [middle of 4 runs] | 102% [middle of 4 runs] | 
CNC(=O)c1ccc(N2C(=S)N(c3ccc(C#N)c(C(F)(F)F)c3)C(=O)C2(C)C)cc1F |  |  |  |  | > 10 µM |  |  | 
COc1c(OCCCN2CCOCC2)ccc2c3n(c(=NC(=O)c4cnc(N)nc4)nc12)CCN3 | 88.2% [middle of 8 runs] | 67.3% [middle of 8 runs] |  |  |  | 75.5% [middle of 8 runs] | 65.1% [middle of 8 runs] | viability, T/C (compound 0.01 µM): 91.7% [middle of 8 runs]; IC50 [2]: > 1 µM
C[C@@H](NC(=O)c1ncnc(N)c1Cl)c1ncc(C(=O)Nc2cc(C(F)(F)F)c(Cl)cn2)s1 |  |  | 68% [middle of 4 runs] |  | > 10 µM |  | 81.6% [middle of 4 runs] | 
Cc1nc(NC(=O)N2CCCC2C(N)=O)sc1-c1ccnc(C(C)(C)C(F)(F)F)c1 (configuration not stated) |  |  |  | 80.8% [middle of 8 runs] |  | 83.4% [middle of 8 runs] |  | IC50 [1]: > 10 µM
Cn1cnc2c(F)c(Nc3ccc(Br)cc3Cl)c(C(=O)NOCCO)cc21 |  |  |  |  | > 3 µM |  |  | viability, T/C (compound 0.00949 µM): 85.4% [middle of 4 runs]; viability, T/C (compound 0.949 µM): 79.5% [middle of 4 runs]
Cn1ncc(Cl)c1-c1cc(C(=O)NC(CN)Cc2cccc(F)c2)sc1Cl (configuration not stated) |  | 74.5% [middle of 4 runs] | 68.2% [middle of 4 runs] | 59.2% [middle of 4 runs] | > 10 µM | 79.8% [middle of 4 runs] | 89.4% [middle of 4 runs] | 
Cn1nccc1Nc1nccc(-c2ccn(C(CO)c3ccc(Cl)c(F)c3)c(=O)c2)n1 (configuration not stated) | 88.9% [middle of 4 runs] | 72.8% [middle of 4 runs] | 91.2% [middle of 4 runs] |  | > 10 µM |  | 94% [middle of 4 runs] | 
Cn1ncnc1[C@H]1c2n[nH]c(=O)c3cc(F)cc(c23)N[C@@H]1c1ccc(F)cc1 | 103% [middle of 4 runs] |  |  |  | > 0.1 µM | 89.3% [middle of 4 runs] |  | viability, T/C (compound 0.000316 µM): 99.1% [middle of 4 runs]; viability, T/C (compound 0.00316 µM): 90.5% [middle of 4 runs]
